This is an account of results in patent publication US20180168208A1 (priority 2014, published 2018).

The structures appear in SMILES notation. Where two headings read alike, the source gives them in different places. A value given as a limit tells only on which side of the number the result lay.

This assay addresses T1R1/T1R3 receptor (Felis catus, UniProt E3UMS2). Briefly: cell-based. The following applies: for Max resp % of Ala, +IMP (0.2 mM): relative to alanine; for Thres (mM), +IMP (0.2 mM): threshold concentration in the presence of 0.2 mM IMP. The source says:
HEK293 cells that stably express T1R3 and inducibly express T1R1 were exposed to nucleotide derivatives alone to activate the umami receptor. Activation of the T1R1/T1R3 receptor was detected by a change in intracellular calcium levels using a calcium sensitive fluorescent dye. Cells that express T1R3 but not T1R1 were used as a control. A FLIPR® Tetra or a FlexStation® 3 was used for data capture.
HEK293 cells that stably express T1R3 and inducibly express T1R1 were exposed to nucleotide derivatives alone or in combination with one or more amino acids and/or one or more nucleotides to activate the umami receptor. Activation of the T1R1/T1R3 receptor was detected by a change in intracellular calcium levels using a calcium sensitive fluorescent dye and/or a luminescent reporter system. Cells that express T1R3 but not T1R1 were used as a control. A FLIPR® Tetra or a FlexStation® 3 was used for data capture.
HEK293 cells that stably express T1R3 and inducibly express T1R1 were exposed to transmembrane compounds alone or in combination with one or more amino acids and/or one or more nucleotides to activate the umami receptor. Activation of the T1R1/T1R3 receptor was detected by a change in intracellular calcium levels using a calcium sensitive fluorescent dye. Cells that express T1R3 but not T1R1 were used as a control. A FLIPR® Tetra or a FlexStation® 3 was used for data capture.
In each experiment, serial dilutions of up to 10 mM of the transmembrane compound were added to the T1R1/T1R3-expressing cells.

[1] abbreviates: T1R1/T1R3 EC50 +0.2 mM IMP, +0.2 mM IMP.
Where [2] appears, read: alone in buffer, read-out: T1R1/T1R3 EC50 alone in buffer.
Setting [3] is: EC50 (mM), +Alanine (20 mM) + IMP (0.2 mM), in the presence of 20 mM alanine and 0.2 mM IMP.

For the molecule `O=C(O)C1CCCCC1C(=O)Nc1cc(Cl)cc(Cl)c1` (stereo not drawn), the EC50 amounted to 0.49 ± 0.01 mM. Besides, the EC50 under setting [1] came to 0.18 ± 0.01 mM. Moreover, the EC50 under setting [2] stood at 0.37 ± 0.05 mM.
Consider `CC(C)CC(NC(=O)c1ccccc1)C(N)=O` (racemic), for which the “Max resp % of IMP, +Alanine (20 mM)” value was determined as 125.5%; the “Thres (mM), +Alanine (20 mM)” value was 0.3 mM; the “Thres (mM), +IMP (0.2 mM)” value was 0.1 mM. Under setting [3], the EC50 turned out to be 0.91 mM. Moreover, under “in the presence of 0.2 mM IMP”, the “Max resp % of Ala, +IMP (0.2 mM)” value was 204.5%.
Regarding `O=C(NCCc1ccccc1)c1ccc2c(c1)OCO2` [N-phenethylbenzo[d][1,3]dioxole-5-carboxamide], the “Max resp % of IMP, +Alanine (20 mM)” value is recorded as 11.3%; the “Thres (mM), +Alanine (20 mM)” value came to 1.0 mM; the “Thres (mM), +IMP (0.2 mM)” value was found to be 0.01 mM. Further, the EC50 under setting [3] was 0.03 mM. Besides, the EC50 (EC50 (mM), +IMP (0.2 mM), in the presence of 0.2 mM IMP) came out at 0.04 mM. The EC50 under setting [1] was 0.04 ± 0.01 mM. Moreover, the EC50 (T1R1/T1R3 EC50 +20 mM L-alanine, +20 mM L-alanine) is > 1 mM. Under setting [2], the EC50 turned out to be 0.12 ± 0.07 mM. The EC50 (compound alone in buffer, read-out: EC50 (mM), +buffer (alone)) is 0.12 mM. The “Max resp % of Ala, +IMP (0.2 mM)” value (in the presence of 0.2 mM IMP) came out at 92.0%.
